# From paper PMC11576293, “New series of 4,6-diaryl pyrimidines: facile synthesis and antiproliferative activity as dual EGFR/VEGFR-2 inhibitors” (Frontiers in Chemistry, 2024)
# How the values were obtained:
# UACC-62 = assay: NCI-60 single-dose screen; format: cell-based; settings: Homo sapiens, single dose 10 µM, '-' = no inhibition, read-out: % Growth Inhibition
# Procedure: (§1) The National Cancer Institute’s Developmental Therapeutic Program (www.dtp.nci.nih.gov) has tested compounds 9–29 (except compounds 21 and 22) against 60 cancer cell lines from nine types (leukemia, lung, colon, CNS, melanoma, ovarian, renal, prostate, and breast cancer) at a single dose (10 μM) ([El-Sherief et al., 2018]). […] The most sensitive cells included leukemia (SR, K-562, and MOLT-4), lung (NCI-H522, […], and EKVX), breast (MCF-7 and T-47D), colon (HCT-15 and HT-29), and ovarian (NCI/ADR-RES).
# (§2) The National Cancer Institute’s Developmental Therapeutic Program (www.dtp.nci.nih.gov) evaluated compounds 9–29 (excluding 21 and 22) against 60 cancer cell lines from nine categories (leukemia, lung, colon, CNS, melanoma, ovarian, renal, prostate, and breast cancer) at a single dose (10 μM) ([El-Sherief et al., 2018]). See Supplementary Material A1 for more details.
# ACHN 1 = assay: NCI-60 single-dose screen; format: cell-based; settings: Homo sapiens, single dose 10 µM, '-' = no inhibition, read-out: % Growth Inhibition
# Procedure: as §1, §2
# HT29 = assay: NCI-60 single-dose screen; format: cell-based; settings: Homo sapiens, HT-29, single dose 10 µM, '-' = no inhibition, read-out: % Growth Inhibition
# Procedure: as §1, §2
# SK-OV-3 = assay: NCI-60 single-dose screen; format: cell-based; settings: Homo sapiens, single dose 10 µM, '-' = no inhibition, read-out: % Growth Inhibition
# Procedure: as §1, §2
# SN12C = assay: NCI-60 single-dose screen; format: cell-based; settings: Homo sapiens, single dose 10 µM, '-' = no inhibition, read-out: % Growth Inhibition
# Procedure: as §1, §2
# UACC-257 = assay: NCI-60 single-dose screen; format: cell-based; settings: Homo sapiens, single dose 10 µM, '-' = no inhibition, read-out: % Growth Inhibition
# Procedure: as §1, §2
# IGROV1 = assay: NCI-60 single-dose screen; format: cell-based; settings: Homo sapiens, IGROV-1, single dose 10 µM, '-' = no inhibition, read-out: % Growth Inhibition
# Procedure: as §1, §2
# CCRF-CEM = assay: NCI-60 single-dose screen; format: cell-based; settings: Homo sapiens, single dose 10 µM, '-' = no inhibition, read-out: % Growth Inhibition
# Procedure: as §1, §2
# SK-MEL-2 = assay: NCI-60 single-dose screen; format: cell-based; settings: Homo sapiens, single dose 10 µM, '-' = no inhibition, read-out: % Growth Inhibition
# Procedure: as §1, §2
# MALME-3M = assay: NCI-60 single-dose screen; format: cell-based; settings: Homo sapiens, single dose 10 µM, '-' = no inhibition, read-out: % Growth Inhibition
# Procedure: as §1, §2
# BT-549 = assay: NCI-60 single-dose screen; format: cell-based; settings: Homo sapiens, single dose 10 µM, '-' = no inhibition, read-out: % Growth Inhibition
# Procedure: as §1, §2
# HCC-2998 = assay: NCI-60 single-dose screen; format: cell-based; settings: Homo sapiens, single dose 10 µM, '-' = no inhibition, read-out: % Growth Inhibition
# Procedure: as §1, §2
# MOLT-4 = assay: NCI-60 single-dose screen; format: cell-based; settings: Homo sapiens, single dose 10 µM, '-' = no inhibition, read-out: % Growth Inhibition
# Procedure: as §1, §2
# SNB-19 = assay: NCI-60 single-dose screen; format: cell-based; settings: Homo sapiens, single dose 10 µM, '-' = no inhibition, read-out: % Growth Inhibition
# Procedure: as §1, §2
# MCF7 = assay: NCI-60 single-dose screen; format: cell-based; settings: Homo sapiens, single dose 10 µM, '-' = no inhibition, read-out: % Growth Inhibition
# Procedure: as §1, §2
# NCI-H460 = assay: NCI-60 single-dose screen; format: cell-based; settings: Homo sapiens, single dose 10 µM, '-' = no inhibition, read-out: % Growth Inhibition
# Procedure: as §1, §2
# EKVX = assay: NCI-60 single-dose screen; format: cell-based; settings: Homo sapiens, single dose 10 µM, '-' = no inhibition, read-out: % Growth Inhibition
# Procedure: as §1, §2
# NCI-H522 = assay: NCI-60 single-dose screen; format: cell-based; settings: Homo sapiens, single dose 10 µM, '-' = no inhibition, read-out: % Growth Inhibition
# Procedure: as §1, §2
# NCI-H23 = assay: NCI-60 single-dose screen; format: cell-based; settings: Homo sapiens, single dose 10 µM, '-' = no inhibition, read-out: % Growth Inhibition
# Procedure: as §1, §2
# CAKI-1 = assay: NCI-60 single-dose screen; format: cell-based; settings: Homo sapiens, single dose 10 µM, '-' = no inhibition, read-out: % Growth Inhibition
# Procedure: as §1, §2
# MDA-MB231/ATCC = assay: NCI-60 single-dose screen; format: cell-based; settings: Homo sapiens, MDA-MB-231, single dose 10 µM, '-' = no inhibition, read-out: % Growth Inhibition
# Procedure: as §1, §2
# A498 = assay: NCI-60 single-dose screen; format: cell-based; settings: Homo sapiens, single dose 10 µM, '-' = no inhibition, read-out: % Growth Inhibition
# Procedure: as §1, §2
# HCT-15 = assay: NCI-60 single-dose screen; format: cell-based; settings: Homo sapiens, single dose 10 µM, '-' = no inhibition, read-out: % Growth Inhibition
# Procedure: as §1, §2
# LOX IMVI = assay: NCI-60 single-dose screen; format: cell-based; settings: Homo sapiens, single dose 10 µM, '-' = no inhibition, read-out: % Growth Inhibition
# Procedure: as §1, §2
# K-562 = assay: NCI-60 single-dose screen; format: cell-based; settings: Homo sapiens, K562, single dose 10 µM, '-' = no inhibition, read-out: % Growth Inhibition
# Procedure: as §1, §2
# KM12 = assay: NCI-60 single-dose screen; format: cell-based; settings: Homo sapiens, single dose 10 µM, '-' = no inhibition, read-out: % Growth Inhibition
# Procedure: as §1, §2
# SK-MEL-28 = assay: NCI-60 single-dose screen; format: cell-based; settings: Homo sapiens, single dose 10 µM, '-' = no inhibition, read-out: % Growth Inhibition
# Procedure: as §1, §2
# SW-620 = assay: NCI-60 single-dose screen; format: cell-based; settings: Homo sapiens, single dose 10 µM, '-' = no inhibition, read-out: % Growth Inhibition
# Procedure: as §1, §2
# SR = assay: NCI-60 single-dose screen; format: cell-based; settings: Homo sapiens, single dose 10 µM, '-' = no inhibition, read-out: % Growth Inhibition
# Procedure: as §1, §2
# RPMI-8226 = assay: NCI-60 single-dose screen; format: cell-based; settings: Homo sapiens, single dose 10 µM, '-' = no inhibition, read-out: % Growth Inhibition
# Procedure: as §1, §2
# NCI/ADR-RES = assay: NCI-60 single-dose screen; format: cell-based; settings: Homo sapiens, single dose 10 µM, '-' = no inhibition, read-out: % Growth Inhibition
# Procedure: as §1, §2
# SF-268 = assay: NCI-60 single-dose screen; format: cell-based; settings: Homo sapiens, single dose 10 µM, '-' = no inhibition, read-out: % Growth Inhibition
# Procedure: as §1, §2
# PC-3 = assay: NCI-60 single-dose screen; format: cell-based; settings: Homo sapiens, single dose 10 µM, '-' = no inhibition, read-out: % Growth Inhibition
# Procedure: as §1, §2
# TK-10 = assay: NCI-60 single-dose screen; format: cell-based; settings: Homo sapiens, single dose 10 µM, '-' = no inhibition, read-out: % Growth Inhibition
# Procedure: as §1, §2
# OVCAR-8 = assay: NCI-60 single-dose screen; format: cell-based; settings: Homo sapiens, single dose 10 µM, '-' = no inhibition, read-out: % Growth Inhibition
# Procedure: as §1, §2
# SF-295 = assay: NCI-60 single-dose screen; format: cell-based; settings: Homo sapiens, single dose 10 µM, '-' = no inhibition, read-out: % Growth Inhibition
# Procedure: as §1, §2
# HL-60(TB) = assay: NCI-60 single-dose screen; format: cell-based; settings: Homo sapiens, single dose 10 µM, '-' = no inhibition, read-out: % Growth Inhibition
# Procedure: as §1, §2
# MDA-MB-435 = assay: NCI-60 single-dose screen; format: cell-based; settings: Homo sapiens, single dose 10 µM, '-' = no inhibition, read-out: % Growth Inhibition
# Procedure: as §1, §2
# SNB-75 = assay: NCI-60 single-dose screen; format: cell-based; settings: Homo sapiens, single dose 10 µM, '-' = no inhibition, read-out: % Growth Inhibition
# Procedure: as §1, §2
# NCI-H322M = assay: NCI-60 single-dose screen; format: cell-based; settings: Homo sapiens, single dose 10 µM, '-' = no inhibition, read-out: % Growth Inhibition
# Procedure: as §1, §2
# M14 = assay: NCI-60 single-dose screen; format: cell-based; settings: Homo sapiens, single dose 10 µM, '-' = no inhibition, read-out: % Growth Inhibition
# Procedure: as §1, §2
# DU-145 = assay: NCI-60 single-dose screen; format: cell-based; settings: Homo sapiens, single dose 10 µM, '-' = no inhibition, read-out: % Growth Inhibition
# Procedure: as §1, §2
# SF-539 = assay: NCI-60 single-dose screen; format: cell-based; settings: Homo sapiens, single dose 10 µM, '-' = no inhibition, read-out: % Growth Inhibition
# Procedure: as §1, §2
# UO-31 = assay: NCI-60 single-dose screen; format: cell-based; settings: Homo sapiens, single dose 10 µM, '-' = no inhibition, read-out: % Growth Inhibition
# Procedure: as §1, §2
# MDA-MB-468 = assay: NCI-60 single-dose screen; format: cell-based; settings: Homo sapiens, single dose 10 µM, '-' = no inhibition, read-out: % Growth Inhibition
# Procedure: as §1, §2
# RXF 393 = assay: NCI-60 single-dose screen; format: cell-based; settings: Homo sapiens, single dose 10 µM, '-' = no inhibition, read-out: % Growth Inhibition
# Procedure: as §1, §2
# OVCAR-3 = assay: NCI-60 single-dose screen; format: cell-based; settings: Homo sapiens, single dose 10 µM, '-' = no inhibition, read-out: % Growth Inhibition
# Procedure: as §1, §2
smiles,measurement,setting,value
"COc1ccc(-c2cc(-c3ccc(Cl)cc3)nc(SCc3ccccc3)n2)cc1OC [Compound 28, 2-(Benzylthio)-4-(4-chlorophenyl)-6-(3,4-dimethoxyphenyl)pyrimidine]",melting point,,239 to 241 °C
same,inhibition at 10 µM,UACC-62,< 0%
same,inhibition at 10 µM,ACHN 1,13.1%
same,inhibition at 10 µM,HT29,18.7%
same,inhibition at 10 µM,SK-OV-3,2.92%
same,inhibition at 10 µM,SN12C,23.1%
same,inhibition at 10 µM,UACC-257,15.3%
same,inhibition at 10 µM,IGROV1,< 0%
same,inhibition at 10 µM,CCRF-CEM,17.4%
same,inhibition at 10 µM,SK-MEL-2,12%
same,inhibition at 10 µM,MALME-3M,< 0%
same,inhibition at 10 µM,BT-549,3.64%
same,inhibition at 10 µM,HCC-2998,< 0%
same,inhibition at 10 µM,MOLT-4,32.8%
same,inhibition at 10 µM,SNB-19,4.06%
same,inhibition at 10 µM,MCF7,12.9%
same,inhibition at 10 µM,NCI-H460,14.8%
same,inhibition at 10 µM,EKVX,22.2%
same,inhibition at 10 µM,NCI-H522,31.8%
same,inhibition at 10 µM,NCI-H23,2.2%
same,inhibition at 10 µM,CAKI-1,25.7%
same,inhibition at 10 µM,MDA-MB231/ATCC,23%
same,inhibition at 10 µM,A498,0.85%
same,inhibition at 10 µM,HCT-15,27.6%
same,inhibition at 10 µM,LOX IMVI,8.32%
same,inhibition at 10 µM,K-562,30.9%
same,inhibition at 10 µM,KM12,23.2%
same,inhibition at 10 µM,SK-MEL-28,4.01%
same,inhibition at 10 µM,SW-620,2.79%
same,inhibition at 10 µM,SR,39.4%
same,inhibition at 10 µM,RPMI-8226,24.3%
same,inhibition at 10 µM,NCI/ADR-RES,14.3%
same,inhibition at 10 µM,SF-268,10.8%
same,inhibition at 10 µM,PC-3,19%
same,inhibition at 10 µM,TK-10,< 0%
same,inhibition at 10 µM,OVCAR-8,8.97%
same,inhibition at 10 µM,SF-295,7.84%
same,inhibition at 10 µM,HL-60(TB),21.4%
same,inhibition at 10 µM,MDA-MB-435,15.2%
same,inhibition at 10 µM,SNB-75,< 0%
same,inhibition at 10 µM,NCI-H322M,< 0%
same,inhibition at 10 µM,M14,0.81%
same,inhibition at 10 µM,DU-145,8.2%
same,inhibition at 10 µM,SF-539,17.8%
same,inhibition at 10 µM,UO-31,24.8%
same,inhibition at 10 µM,MDA-MB-468,6.53%
same,inhibition at 10 µM,RXF 393,< 0%
same,inhibition at 10 µM,OVCAR-3,< 0%
